One block for each molecule: values may come before it.
Tests used:
[1] = target: T1, eIF2 (β E189K), eIF2βE189K (Saccharomyces cerevisiae, UniProt P09064+P32481, E189K); test: Steady-state fluorescence titration of 100 nM BODIPY-FL nucleotide with increasing apo-eIF2 (490 nm excitation, 509 nm emission) in 30 mM HEPES, 100 mM KCl, 10 mM MgCl2, pH 7.4, at room temperature, fitted to a single-site binding model.
T1 construct: purified apo-eIF2 heterotrimer; V5-sui3-E189K (N-terminal V5 tag on eIF2β), SUI2, His6-GCD11; nucleotide-free after EDTA dialysis
Method: (§1) To assay nucleotide affinity, fluorescence intensity of 100 nM of BODIPY-FL-GDP or BODIPY-FL-GTP (Thermo Fisher Scientific) in 180 μl of assay buffer (30 mM HEPES, 100 mM KCl, 10 mM MgCl2, pH 7.4) was measured using a Fluoromax-4 spectrophotometer (Horiba) (490 nm excitation, 509 nm emission). Yeast Met–tRNAi was assayed in a similar manner using 20 nM BOP-N-Met–tRNAi (tRNA probes) but with the addition of 1 mM GTP. Change in fluorescence intensity was measured upon addition of increasing amounts of apo–eIF2, incubating for 5 min at room temperature each time. Each measurement was blanked against a control without nucleotide to account for any affect of eIF2 and data were corrected for dilution effects caused by volume addition and normalized to starting values before being fitted to a single site binding model: y = 1 + [(ΔFmax - 1)*(x/(x + Kd))].
(§2) eIF2 was purified from yeast strains GP7145 and GP7146 expressing V5-sui3-E189K or the V5-SUI3 derivatives of eIF2β by sequential nickel affinity, HiTrap Heparin and HiTrap Q sepharose chromatography as described ([14]). To obtain apo–eIF2 free from nucleotide, eIF2 was dialysed with EDTA (30 mM HEPES, 100 mM KCl, 1 mM DTT, 1 mM EDTA, 10% glycerol, pH 7.4) then with magnesium (30 mM HEPES, 100 mM KCl, 1 mM DTT, 0.1 mM MgCl2, 10% glycerol, pH 7.4).
(§3) Figure 4. […] (A) Affinity (Kd) of GDP, GTP and Met–tRNAi to purified WT and mutant (β E189K) apo–eIF2 complexes measured by monitoring the fluorescence intensity of 100 nM BODIPY-FL-GDP (left), 100 nM BODIPY-FL-GTP (middle) or 20 nM BOP-N-Met–tRNAi with 1 mM GTP (right). […] K1/2 and Kmax values were determined from curve fitting y = [(Kmax × x)/(K1/2 + x)] + c. (C) Western blotting of IP of Flag-eIF2β, Flag-E189K and an untagged control from cells showing its co-association with known binding proteins. Quantification of at least three repeats using Li-Cor fluorescent secondary antibodies ±SE. […] Tif5 is indicated with an arrow, ‘♦’ marks a non-specific band.

[2] = target: T2, eIF2 WT (Saccharomyces cerevisiae, UniProt P32481); test: as above
T2 construct: gene GCD11; purified apo-eIF2 heterotrimer; V5-SUI3 (N-terminal V5 tag on eIF2β), SUI2, His6-GCD11; nucleotide-free after EDTA dialysis
Method: as §1, §2, §3

[3] = target: Met–tRNAi; test: Steady state fluorescence, BOP-N-Met-tRNAi binding to apo-eIF2; set-up: species or system Yeast; conditions: 20 nM BOP-N-Met-tRNAi with 1 mM GTP, purified apo-eIF2
Method: as §1

[4] = GDP dissociation assay, intrinsic BODIPY-GDP off-rate; type: binding; conditions: 20 nM eIF2•BODIPY-GDP, 1 mM unlabelled GDP, 0 nM eIF2B
Method: (§4) Fluorescent eIF2•BODIPY-GDP binary complex was formed by incubating apo–eIF2 with a 2× excess of BODIPY-FL-GDP (Thermo Fisher Scientific) for 20 min at room temperature. Excess nucleotide was removed by passing through a G-50 sephadex column (GE Healthcare). Labelling efficiency was calculated to exceed 90%. […] K1/2 and Kmax values were determined from curve fitting y = [(Kmax × x)/(K1/2 + x)] + c.

[5] = system: eIF5; test: eIF5 GDI activity, BODIPY-GDP release with GST-eIF5; type: biochemical, yeast; conditions: eIF2•BODIPY-GDP 20 nM, purified eIF5 0–80 nM
Method: as §4
We therefore decided to assess eIF5 GDI activity directly. We monitored eIF5 GDI activity by incubating eIF2•BODIPY-GDP (20 nM) with purified eIF5 (0–80 nM) and recorded the fluorescence change upon dissociation of BODIPY-GDP from eIF2.

[6] = system: sif285-1 GCN2 cells; test: Growth on SD ±3AT media; type: cell-based, yeast; conditions: sif285-1 cells transformed with WT GCN2 plasmid
Method: Strains used and generated in this work are derivatives of S288c and are described in Supplementary Table S1. Cell growth was performed at 30°C in standard yeast rich (YPD), synthetic defined minimal (SD) or synthetic complete (SC) media lacking nutrients for plasmid selection. All media have 2% glucose as a carbon source ([25]). 3-Amino-1,2,4-triazole (3AT) (Fluka) was added where indicated. For serial dilution growth assays, cells were grown to A600 = 0.6, diluted to 0.1 and 2–3 μl of 10-fold dilutions were spotted on the agar surface. Plasmid shuffling to select for loss of URA3 plasmids employed 5-fluoro-orotic acid (5-FOA; Sigma-Aldrich), while loss of LEU2 plasmids relied on passive loss during unselected growth and subsequent screening. Mating type switching employed HO plasmid pAV1621 (pHO1.5) followed by 5-FOA, sporulation, tetrad dissection and mating type testing ([25]). gcd6Δ sui3Δ double deletion strains (GP7216-19) were made by polymerase chain reaction (PCR) amplifying gcd6Δ::KanMX cassette from a BY4743 gcd6Δ::KanMX/GCD6 diploid strain (GP4146) and transforming the DNA fragment into sui3Δ gcn2Δ [SUI3-Flag TRP1] [GCD6 URA3] strains to generate G418 resistant cells unable to lose the covering GCD6 plasmid upon 5-FOA selection.

[7] = system: HIS4-LacZ; test: β-galactosidase assay of HIS4-LacZ fusion; type: cell-based, yeast; conditions: sif285-1 cells bearing GCD6, 3AT treatment
Method: Measurement of β-galactosidase levels from a HIS4-LacZ fusion genomically-integrated at ura3-52 was performed exactly as described ([36]) using whole protein extracts from cells grown in SC medium lacking histidine and uracil or following addition of 10 mM 3AT for 6 h. Units are nmole o-nitrophenyl-β-D-galacto-pyranoside cleaved/min/μg total protein ± SE, n = 3.

[8] = system: HIS4-LacZ; set-up: method as in PMID 16153175; conditions: by GAAC via increased GCN4 translation in the presence of 3AT; cited from earlier work
[9] = target: eIF2^βE189K (V5-eIF2β-E189K, eIF2α, His6-eIF2γ), purified (S. cerevisiae) (UniProt P09064)
Chain of eIF2^βE189K (V5-eIF2β-E189K, eIF2α, His6-eIF2γ), purified (S. cerevisiae) (P09064 whole entry E189K, chain 1 of 3): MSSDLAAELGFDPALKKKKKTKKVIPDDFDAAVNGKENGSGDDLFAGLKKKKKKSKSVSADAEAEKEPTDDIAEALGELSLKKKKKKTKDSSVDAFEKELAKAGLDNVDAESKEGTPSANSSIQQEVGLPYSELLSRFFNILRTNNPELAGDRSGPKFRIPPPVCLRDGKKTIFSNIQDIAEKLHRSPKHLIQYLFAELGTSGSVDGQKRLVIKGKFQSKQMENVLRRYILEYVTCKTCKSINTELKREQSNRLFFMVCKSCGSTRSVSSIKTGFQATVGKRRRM
Chain of eIF2^βE189K (V5-eIF2β-E189K, eIF2α, His6-eIF2γ), purified (S. cerevisiae) (chain, as listed by the source E189K E189K, chain 2 of 3): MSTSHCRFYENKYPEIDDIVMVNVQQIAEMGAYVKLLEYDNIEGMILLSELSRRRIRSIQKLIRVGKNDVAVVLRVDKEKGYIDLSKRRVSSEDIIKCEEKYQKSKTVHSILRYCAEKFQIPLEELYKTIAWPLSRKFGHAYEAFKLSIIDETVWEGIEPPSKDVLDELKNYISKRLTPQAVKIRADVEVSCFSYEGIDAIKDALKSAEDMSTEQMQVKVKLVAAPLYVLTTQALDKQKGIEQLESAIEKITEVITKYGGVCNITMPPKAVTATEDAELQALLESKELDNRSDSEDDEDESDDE
Chain of eIF2^βE189K (V5-eIF2β-E189K, eIF2α, His6-eIF2γ), purified (S. cerevisiae) (chain, as listed by the source E189K E189K, chain 3 of 3): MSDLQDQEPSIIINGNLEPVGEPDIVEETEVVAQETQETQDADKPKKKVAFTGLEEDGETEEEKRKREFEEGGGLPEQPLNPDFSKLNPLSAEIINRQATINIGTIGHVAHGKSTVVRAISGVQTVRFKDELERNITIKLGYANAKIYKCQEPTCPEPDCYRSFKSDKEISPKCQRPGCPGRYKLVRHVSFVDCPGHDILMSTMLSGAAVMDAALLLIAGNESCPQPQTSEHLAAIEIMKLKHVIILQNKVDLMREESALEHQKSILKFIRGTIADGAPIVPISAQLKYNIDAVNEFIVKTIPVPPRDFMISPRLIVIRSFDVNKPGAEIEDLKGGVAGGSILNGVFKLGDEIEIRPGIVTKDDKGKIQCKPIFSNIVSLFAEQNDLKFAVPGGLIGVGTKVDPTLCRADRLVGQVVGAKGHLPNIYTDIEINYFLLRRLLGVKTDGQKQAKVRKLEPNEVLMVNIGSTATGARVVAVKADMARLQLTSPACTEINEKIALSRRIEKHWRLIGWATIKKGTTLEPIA

T2 sequence (P32481 whole entry): as the sequence (chain, as listed by the source E189K E189K, chain 3 of 3) above
T2 sequence (P20459 whole entry partner): as the sequence (chain, as listed by the source E189K E189K, chain 2 of 3) above
T2 sequence (P09064 whole entry partner): as the sequence (P09064 whole entry E189K, chain 1 of 3) above, with K189E counted along it
T1 sequence (P09064 whole entry E189K): as the sequence (P09064 whole entry E189K, chain 1 of 3) above
T1 sequence (P32481 whole entry): as the sequence (chain, as listed by the source E189K E189K, chain 3 of 3) above
T1 sequence (P20459 whole entry, stated change not applied, further chain): as the sequence (chain, as listed by the source E189K E189K, chain 2 of 3) above
Chain of eIF5 (P38431 whole entry): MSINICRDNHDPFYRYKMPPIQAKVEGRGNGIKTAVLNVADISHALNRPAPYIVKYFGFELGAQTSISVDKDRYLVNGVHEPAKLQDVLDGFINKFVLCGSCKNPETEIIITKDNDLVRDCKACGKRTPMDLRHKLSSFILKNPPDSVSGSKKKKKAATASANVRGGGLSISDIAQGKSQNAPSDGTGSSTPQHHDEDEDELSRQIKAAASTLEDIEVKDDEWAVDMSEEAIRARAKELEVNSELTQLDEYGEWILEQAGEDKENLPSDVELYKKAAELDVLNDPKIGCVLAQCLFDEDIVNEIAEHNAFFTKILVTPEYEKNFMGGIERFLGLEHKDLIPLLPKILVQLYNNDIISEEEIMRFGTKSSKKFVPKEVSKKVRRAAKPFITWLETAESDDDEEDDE
Chain of eIF5 (P32481 whole entry, further chain): as the sequence (chain, as listed by the source E189K E189K, chain 3 of 3) above
Chain of eIF5 (P20459 whole entry, further chain): as the sequence (chain, as listed by the source E189K E189K, chain 2 of 3) above

Molecule: Cc1cc(C)n2c1C=C1C=CC(CCC(=O)NCCNC(=O)OC3C(COP(=O)(O)OP(=O)(O)OP(=O)(O)O)OC(n4cnc5c(=O)[nH]c(N)nc54)C3O)=[N+]1[B-]2(F)F (centres unmarked) [BODIPY-FL-GTP, guanosine 5'-triphosphate, BODIPY FL 2'-(or-3')-O-(N-(2-aminoethyl)urethane)]
Kd [1]: 32 nM
Kd [2]: 35.2 nM

Molecule: eIF2 WT: Wild-type yeast translation initiation factor eIF2 complex purified from an overexpression yeast strain (V5-SUI3)
Kd [3]: 2.8 nM
Koff BODIPY-GDP [4]: 0.00487 ± 0.000417 s⁻¹
stabilization of GDP binding by eIF5 (GDI activity) [5]: stabilized by eIF5

Molecule: Cc1cc(C)n2c1C=C1C=CC(CCC(=O)NCCNC(=O)OC3C(COP(=O)(O)OP(=O)(O)O)OC(n4cnc5c(=O)[nH]c(N)nc54)C3O)=[N+]1[B-]2(F)F (centres unmarked) [BODIPY-FL-GDP, guanosine 5'-diphosphate, BODIPY FL 2'-(or-3')-O-(N-(2-aminoethyl)urethane)]
Kd [1]: 19.3 nM
Kd [2]: 19.1 nM

Molecule: Nc1nc[nH]n1 [3AT, 3-Amino-1,2,4-triazole]
cell growth [6]: impaired
HIS4-LacZ expression [7]: not derepressed
HIS4 transcription derepression [8]: ~2 fold

K1/2 of eIF2B for GEF-promoted release of BODIPY-FL-GDP from purified eIF2•BODIPY-GDP (20 nM), room temperature [9]: 92.6 nM
Molecule: eIF2B, P14741 1-305; P32502 1-381; P09032 1-578; P12754 1-651; P32501 1-712

Reference: publication PMC5175340, “eIF2β is critical for eIF5-mediated GDP-dissociation inhibitor activity and translational control” (Nucleic Acids Research, 2016)
